Measured values taken from patent US20010053776A1, “Tricyclic pyridin-2-one analogue as a GABA receptor ligand” (priority 2000, published 2001).

melting point: 300 to 302 °C
SMILES: Cc1csc(-c2cc(-c3ccncc3)c3n(c2=O)CCCc2ccncc2-3)n1 [Example 1, 9-(4-Methylthiazol-2-yl)-11-(pyridin-4-yl)-6,7-dihydro-5H-2,7a-diazadibenzo[a,c]cyclohepten-8-one]
